In a melting point compilation (Tetko et al.; mined from patent text by program, amines drawn as free bases though some values may be those of a salt):

SMILES	melting point
Nc1ccc2c(c1)C(=O)CC2	168 to 171 °C
COc1ccc(C=CC(=O)O)cc1C=O	223 to 225 °C
COc1ccc2c(c1)[nH]c(=O)c(=O)n2C	332 °C
Cc1c(C)c(N2CCN(c3ccc(C(C)C)cc3)CC2)c(C)c2c1OC(C)(CO)C2 (configuration not stated)	160 to 163 °C
CN1C(=N)c2c(Cl)cccc2S1(=O)=O	92.5 to 95 °C
CC(=O)N1CCC(O)(C(=O)c2ccc(F)cc2)CC1	146 to 149 °C
COc1ccc(CCCl)cc1O	53 to 54 °C
Fc1ccc(Cn2c(NC3CCN(CCSc4nc5cccnc5s4)CC3)nc3ccccc32)cc1	160 °C
O=C1NC(=O)C(Nc2ccc(Cl)c3ccccc23)S1 (configuration not stated)	205 to 206 °C
COc1cc2cccnc2c(N2CCN([C@H]3CC[C@@H](c4cn(C)c5ccc(C#N)cc54)CC3)CC2)n1	230 to 233 °C
CN1C(=O)Cc2cc(C3=NNC(=O)C4CC34)ccc21 (configuration not stated)	265 to 267 °C
CC(C)(C)OC(=O)NCc1ccc(CNC(=O)[C@@H](CCCNC(N)=N[N+](=O)[O-])NC(=O)C(c2ccccc2)c2ccccc2)cc1	198 °C
CSc1cccc2nc3sccn3c(=O)c12	186 to 189 °C
COc1cc(C)cc(OC)c1C(=O)CCl	82 to 84 °C
Oc1cnccc1CCCOc1cccnc1Oc1cccc(Br)c1	116 to 118 °C
CCOc1ccc2[nH]c(=O)n(C(C)(C)CC(C)(C)C)c2c1	108 °C
CN(C)c1ccc(-c2nc(Cl)c3ccccc3n2)cc1	167 to 170 °C
CC(C)(C)c1cc(/C=C/C(=O)CC(=O)/C=C/c2cc(C(C)(C)C)c(O)c(C(C)(C)C)c2)cc(C(C)(C)C)c1O	192 to 196 °C
Cn1c2cc(Cl)cc(Cl)c2c2cc(C(=O)O)sc21	278 to 281 °C
O=C(OCC(Cl)(Cl)Cl)n1ccnc1	80 °C
CC(=O)Oc1cccc2c1NC(O)C1CCCN1C2=O (configuration not stated)	143 to 145 °C
CC(C#N)CCCC(N(C)C)C1(c2ccc(Cl)cc2)CCC1 (configuration not stated)	54 to 56 °C

SMILES	melting point
Nc1nccnc1OCc1cccnc1	120 to 122 °C
O=c1[nH]ccc2ncccc12	156 to 159 °C
Cc1cccc(-c2nc(=O)c3ccccc3s2)n1	170 °C
CC(=O)N1N=C(c2ccc(N)cc2)c2cc(Br)ccc2CC1C (configuration not stated)	205 to 208 °C
COc1cc(-c2ccc(-c3ccc(N=Nc4ccccn4)c(OC)c3)o2)ccc1N=Nc1ccccn1	212 to 213 °C
CN1CCN(CCCNc2ccccc2N)CC1	65 to 67 °C
CCOCc1nc(N)c2nccnc2n1	152 to 154 °C
Cc1onc(NS(=O)(=O)c2ccccc2-c2ccc(-c3ncco3)cc2CN2CCC(C)(C)C2=O)c1C	110 to 117 °C
CN1CCC(O)(Cc2ccccc2F)CC1	93 to 95 °C
Nc1cc(SC2=CCCCC2)ccc1[N+](=O)[O-]	100 to 102 °C
O=[N+]([O-])c1ccc(-c2cc[nH]n2)cc1	196 to 197 °C
COc1cc(OC)nc(NC(=O)NS(=O)(=O)c2cccc3sc(C)nc23)n1	187 to 194 °C
CCn1nnc(-c2cccc(-c3ccnc4c(-c5cc(C)cc(C)c5)cnn34)c2)n1	65 °C
CCC(CO)Nc1nc(C)nc2c(C)nn(C)c12 (configuration not stated)	165 to 168 °C
O=C(O)c1cn(-c2ccc(F)cn2)c2nc(Cl)c(F)cc2c1=O	234 to 238 °C
Cc1cc2c(cc1[N+](=O)[O-])C(C)(C)CCC2(C)C	143 to 144 °C
CC(=O)NCC1CN(c2ccc3c(c2)C(=O)CCCC3)C(=O)O1 (configuration not stated)	120 to 121 °C
CC(=O)SC(CC(=O)c1ccc(Cl)c(Cl)c1)C(=O)O (configuration not stated)	102 to 105 °C
CC(=O)OC1CCC2C3CCC4CC(O[Si](C)(C)C(C)(C)C)CCC4C3CCC12C (configuration not stated)	89 to 90 °C
COC(=O)c1cc(Cl)c(NC(C)=O)c2c1OCCC2	184 °C
CC(C)(C)OC(=O)N1CCN(C(=O)Cn2sc3ccccc3c2=O)CC1	120 to 122 °C

The remaining lines, values ahead:

melting point	SMILES
224 °C	OC(Cn1ccnc1)(c1ccccc1)c1ccc(-c2ccccc2)cc1 (configuration not stated)
209 to 210 °C	CCOCc1nc2c(N)nc3cc(OCc4ccc(C)cc4)ccc3c2n1CC(C)C
64 to 66 °C	COc1cc(Oc2cccc(OC(F)(F)F)c2)nc(C(=O)O)c1
270 to 271 °C	O=C(O)c1ccc(-c2ccc(-c3ccc(C(F)(F)F)cc3)o2)cc1
145 to 146 °C	CC[C@H](C)C(OCc1ccccc1)[C@H]1[C@H]([N+](=O)[O-])[C@H](c2ccsc2)N[C@@H]1C(=O)NCCC(=O)O (some centres not stated)
157 to 159 °C	O=C(CCCN1CCCCC1)c1ccc2c(c1)Cc1cc(C(=O)CCCN3CCCCC3)ccc1-2
111 to 113 °C	CN(CCCC(=O)O)c1ccc(C(=O)c2ccccc2)cc1
155 to 156 °C	CCC1c2cccn2-c2c(cc(F)c(F)c2F)N1S(=O)(=O)c1ccc(O)cc1 (configuration not stated)
261 to 262 °C	O=C(O)c1ccc(-c2nc(-c3ccc(OC(F)F)cc3)co2)cc1
187 to 188 °C	CCNC(=O)Cc1ccc(C(=O)c2ccc(Cl)cc2)n1C
246 to 247 °C	CCCOc1ccc(C(N)=O)cc1-c1ccc(C#N)c(=O)[nH]1
151 to 153 °C	CC(C)(C)CC(=O)c1c(-c2ccc3c(Br)c(OCC(=O)O)ccc3c2)oc2ccccc12
123 to 124 °C	CCOC(=O)c1nccn1CCCc1ccc(OCc2coc(/C=C/c3ccccc3)n2)cc1
204 to 206 °C	COC(=O)c1ccc(C(=O)NS(=O)(=O)c2ccc(CCNC(=O)CCC(C)C)cc2)cn1
122 °C	COc1ccc([C@H](CC(=O)O)N2CCN(CCCc3ccc4c(n3)NCCC4)C2=O)cn1
137 to 138 °C	CC(CCCCCCNC(=O)c1ccc(OC(F)(F)F)cc1)NC(=O)c1ccc(OC(F)(F)F)cc1 (configuration not stated)
180 to 181 °C	CNC(=S)Nc1nc(C(C)c2ccc(-c3ccccc3)c(F)c2)cs1 (configuration not stated)
112 to 114 °C	Cc1ccc(S(=O)(=O)C2=C(C(=O)OCC(C)C)C(=O)C=C(C(=O)OCC(C)C)C2=O)cc1
101 to 103 °C	CC(=O)C(=NNc1ccccc1)C(=O)NCc1ccccc1
150 to 152 °C	O=C1NC(=O)C(Cc2ccc3cc(OCc4ccccc4F)ccc3c2)S1 (configuration not stated)
80 to 82 °C	CCOC(=O)n1nc(-c2cccc(OC)c2)nc1-c1ccccc1CC
173 to 175 °C	CCOc1ccc(-c2c(C)c3cc(O)ccc3n2Cc2ccc(OCCN3CCCCC3)cc2)cc1
254 to 256 °C	N#Cc1ccc(OCCNc2ccc(C(=O)O)cc2)c2ccccc12
58 to 63 °C	O=C(Oc1cccc2sc(-c3ccc(OCCN4CCCC4)cc3)c(C(=O)c3ccc(F)cc3)c12)c1ccc(F)cc1
168 to 170 °C	CS(=O)(=O)c1ccc(-c2oc(C(F)F)cc(=O)c2-c2ccc(Cl)cc2)cc1
153 to 156 °C	COc1ccc(COC(=O)NC(C(=O)O)c2cccs2)cc1 (configuration not stated)
83 to 84 °C	O=C(OCC1OC(n2ccc(-n3cncn3)nc2=O)C(OC(=O)c2ccccc2)C1OC(=O)c1ccccc1)c1ccccc1 (configuration not stated)
202 to 204 °C	CCc1c(NC(=O)c2ccc(Br)cc2)ccc2cc(CO)cnc12
134 to 136 °C	CCCCn1c(=O)n(CCCC)c2cc3c(N4CCN(C(=O)Nc5ccc(Oc6ccccc6)cc5)CC4)ncnc3cc21
